Measured values reported in patent publication US20040014812A1, “Remedies for keratoconjunctival diseases containing farnesyl acetate as the active ingredient” (SANTEN PHARMACEUTICAL CO. LTD, priority 2000, published 2004).

System: lacrimal gland-nictitating membrane-harderian gland-enucleated rabbit dry eye models
Assay: Rose bengal intake of cornea in rabbit dry eye models after instillation of ophthalmic solutions
Assay type: in vivo
Conditions: rabbit dry eye model
Method: An effect of farnesylacetic acid on dry eye was studied by using lacrimal gland-nictitating membrane-harderian gland-enucleated rabbit dry eye models.
Lacrimal gland-nictitating membrane-harderian gland-enucleated rabbit dry eye models were prepared by reference to the method of Girbard et al. (Invest. Ophthalmol. Vis. Sci., 28: 225-228 (1987)). Namely, a 7:1 mixture of a 5% ketamine hydrochloride injection and a 2% xylazine hydrochloride injection was injected into rabbits in an amount of 1 ml/kg to anesthetize the rabbits systemically. A 0.4% oxybuprocaine hydrochloride ophthalmic solution was instilled into the rabbits, lower lid skin was dissected in length of about 5 mm along an orbital bone, and then a lacrimal gland was enucleated from the outside of a conjunctival sac. The skin at the dissected site was sutured with 4-0 sutures, and an ofloxacin eye ointment was applied to the sutured site. Next, a harderian gland was enucleated while drawing it out with a nictitating membrane. Finally, the ofloxacin eye ointment was applied to the enucleated site.
Farnesylacetic acid ophthalmic solutions were prepared by diluting farnesylacetic acid with the following vehicle so that its concentrations were 0.75, 7.5 and 75 μM. A gefarnate ophthalmic solution was prepared by diluting gefarnate with the same vehicle so that its concentration was 7.5 mM. All the obtained ophthalmic solutions had pH of 7.4 and osmotic pressure of 1.0.
Each farnesylacetic acid ophthalmic solution (50 μl) was instilled into the lacrimal gland-nictitating membrane-harderian gland-enucleated rabbits six times per day for two weeks (four rabbits and eight eyes per group. The vehicle and gefarnate were instilled similarly as a control group and a comparative group respectively.
Effects on dry eye were evaluated by measuring rose bengal intake. A 7:1 mixture of a 5% ketamine hydrochloride injection and a 2% xylazine hydrochloride injection was injected into the rabbits in an amount of 1 ml/kg to anesthetize the rabbits systemically, then eyelids were opened with an eye speculum, and the conjunctival sacs were filled with physiological saline containing 1% rose bengal. The eyes were maintained for 10 seconds and then washed with physiological saline. A 5% pentobarbital injection was injected into the rabbits to euthanatize them, and eyeballs were enucleated. Corneal pieces were prepared with a trephine having an inner diameter of 8 mm, put into 1 ml of 2 M sodium hydroxide and allowed to stand under light resistance for one day to dissolve corneal tissues completely. Absorbance at a wavelength of 560 nm of the obtained tissue-dissolved solutions was measured with a spectrophotometer.
Rose bengal stains a portion containing no mucin layer in keratoconjunctiva. […] Accordingly, when the mucin layer decreases because of dry eye, rose bengal intake of the corneal tissues increases, and the absorbance of the tissue-dissolved solution increases.

## CC(C)=CCC/C(C)=C/CC/C(C)=C/CCC(=O)O [Farnesylacetic acid, farnesylacetic acid]
75 μM administration group, about 1/100 of the gefarnate concentration
  Effect compared with gefarnate (7.5 mM administration group): an effect equal to that of gefarnate
0.75, 7.5 and 75 μM administration groups
  Rose bengal intake compared with vehicle administration group: apparently less than that in the vehicle administration group
Ophthalmic solution 0.75 μM, 50 μl instilled six times per day for two weeks
  Absorbance (560 nm) of corneal tissue-dissolved solution (rose bengal intake): 0.169
Ophthalmic solution 7.5 μM, 50 μl instilled six times per day for two weeks
  Absorbance (560 nm) of corneal tissue-dissolved solution (rose bengal intake): 0.139
Ophthalmic solution 75 μM, 50 μl instilled six times per day for two weeks
  Absorbance (560 nm) of corneal tissue-dissolved solution (rose bengal intake): 0.093

## CC(C)=CCC/C(C)=C/CC/C(C)=C/CCC(=O)OC/C=C(\C)CCC=C(C)C [gefarnate, reference compound]
Ophthalmic solution 7.5 mM, instilled six times per day for two weeks
  Absorbance (560 nm) of corneal tissue-dissolved solution (rose bengal intake): 0.075
